In ChEMBL document CHEMBL1143892, “Oligo(tyrosine sulfate)s as heparin pentasaccharide mimic: evaluation by surface noncovalent affinity mass spectrometry” (2008) one finds APTT data, which are given here for five compounds.

Non-standard residues stand in square brackets, D forms with d. Residues, ends and D or L forms follow the SMILES beside them. *: point of attachment. X1 = O=C([C@H](Cc1ccc(OS(=O)(=O)O)cc1)NS(=O)(=O)O)*; sY = N[C@@H](Cc1ccc(OS(=O)(=O)O)cc1)C(=O)O

Format in all cases: functional
For experiment [1], the system named is Plasma. Put plainly: Anticoagulant activity in human plasma assessed as activated partial thromboplastin time at 1 mg/ml after 15 mins.
In experiment [2] the test system is Plasma. Put plainly: Anticoagulant activity in human plasma assessed as activated partial thromboplastin time at 0.01 mg/ml after 15 mins.
Experiment [3] concerns Plasma. Put plainly: Anticoagulant activity in human plasma assessed as activated partial thromboplastin time at 0.3 mg/ml after 15 mins.
Experiment [4] has as its system Plasma. Put plainly: Anticoagulant activity in human plasma assessed as activated partial thromboplastin time at 0.1 mg/ml after 15 mins.
The test system of experiment [5] is Plasma. In words: Anticoagulant activity in human plasma assessed as activated partial thromboplastin time at 0.03 mg/ml after 15 mins.

For the compound `N[C@@H](Cc1ccc(OS(=O)(=O)[O-])cc1)C(=O)N[C@@H](Cc1ccc(OS(=O)(=O)[O-])cc1)C(=O)N[C@@H](Cc1ccc(OS(=O)(=O)[O-])cc1)C(=O)N[C@@H](Cc1ccc(OS(=O)(=O)[O-])cc1)C(=O)N[C@@H](Cc1ccc(OS(=O)(=O)[O-])cc1)C(=O)N[C@@H](Cc1ccc(OS(=O)(=O)[O-])cc1)C(=O)N[C@@H](Cc1ccc(OS(=O)(=O)[O-])cc1)C(=O)O.[Na+].[Na+].[Na+].[Na+].[Na+].[Na+].[Na+]` (H-[sY][sY][sY][sY][sY][sY][sY]-OH), the APTT with Plasma [1] was found to be 40.6 s; in the experiment on Plasma [2] it was 30.4 s; in the experiment with Plasma [3] it was 32.4 s; with Plasma [4], 31 s; in the experiment with Plasma [5] it was 30.5 s.

Take `O=C(O)[C@H](Cc1ccc(OS(=O)(=O)[O-])cc1)NC(=O)[C@H](Cc1ccc(OS(=O)(=O)[O-])cc1)NC(=O)[C@H](Cc1ccc(OS(=O)(=O)[O-])cc1)NC(=O)[C@H](Cc1ccc(OS(=O)(=O)[O-])cc1)NC(=O)[C@H](Cc1ccc(OS(=O)(=O)[O-])cc1)NC(=O)[C@H](Cc1ccc(OS(=O)(=O)[O-])cc1)NC(=O)[C@H](Cc1ccc(OS(=O)(=O)[O-])cc1)NC(=O)[C@H](Cc1ccc(OS(=O)(=O)[O-])cc1)NC(=O)[C@H](Cc1ccc(OS(=O)(=O)[O-])cc1)NS(=O)(=O)[O-].[Na+].[Na+].[Na+].[Na+].[Na+].[Na+].[Na+].[Na+].[Na+].[Na+]` (X1-[sY][sY][sY][sY][sY][sY][sY][sY]-OH): the APTT is reported as 95.8 s in the experiment on Plasma [1]; 31.9 s in the experiment with Plasma [2]; 45.7 s with Plasma [3]; 36.5 s in the experiment with Plasma [4]; 33.1 s in the experiment on Plasma [5].

As to `O=C([O-])[C@H](Cc1ccc(OS(=O)(=O)[O-])cc1)NC(=O)[C@H](Cc1ccc(OS(=O)(=O)[O-])cc1)NC(=O)[C@H](Cc1ccc(OS(=O)(=O)[O-])cc1)NC(=O)[C@H](Cc1ccc(OS(=O)(=O)[O-])cc1)NC(=O)[C@H](Cc1ccc(OS(=O)(=O)[O-])cc1)NC(=O)[C@H](Cc1ccc(OS(=O)(=O)[O-])cc1)NC(=O)[C@H](Cc1ccc(OS(=O)(=O)[O-])cc1)NC(=O)[C@H](Cc1ccc(OS(=O)(=O)[O-])cc1)NC(=O)[C@H](Cc1ccc(OS(=O)(=O)[O-])cc1)NC(=O)[C@H](Cc1ccc(OS(=O)(=O)[O-])cc1)NC(=O)[C@H](Cc1ccc(OS(=O)(=O)[O-])cc1)NC(=O)[C@H](Cc1ccc(OS(=O)(=O)[O-])cc1)NS(=O)(=O)[O-].[Na+].[Na+].[Na+].[Na+].[Na+].[Na+].[Na+].[Na+].[Na+].[Na+].[Na+].[Na+].[Na+].[Na+]` (X1-[sY][sY][sY][sY][sY][sY][sY][sY][sY][sY][sY]-OH), the APTT worked out at 172.1 s with Plasma [1]; 32 s in the experiment with Plasma [2]; 75.7 s in the experiment with Plasma [3]; 50.3 s in the experiment on Plasma [4]; 37.6 s in the experiment with Plasma [5].

Regarding `O=C(O)[C@H](Cc1ccc(OS(=O)(=O)[O-])cc1)NC(=O)[C@H](Cc1ccc(OS(=O)(=O)[O-])cc1)NC(=O)[C@H](Cc1ccc(OS(=O)(=O)[O-])cc1)NC(=O)[C@H](Cc1ccc(OS(=O)(=O)[O-])cc1)NC(=O)[C@H](Cc1ccc(OS(=O)(=O)[O-])cc1)NC(=O)[C@H](Cc1ccc(OS(=O)(=O)[O-])cc1)NS(=O)(=O)[O-].[Na+].[Na+].[Na+].[Na+].[Na+].[Na+].[Na+]` (X1-[sY][sY][sY][sY][sY]-OH), the APTT in the experiment with Plasma [1] was determined as 64.8 s; in the experiment with Plasma [2] it was 30.8 s; in the experiment with Plasma [3] it was 35.7 s; with Plasma [4] it was 32.3 s; in the experiment with Plasma [5], 31.2 s.

As to `N[C@@H](Cc1ccc(OS(=O)(=O)[O-])cc1)C(=O)N[C@@H](Cc1ccc(OS(=O)(=O)[O-])cc1)C(=O)N[C@@H](Cc1ccc(OS(=O)(=O)[O-])cc1)C(=O)N[C@@H](Cc1ccc(OS(=O)(=O)[O-])cc1)C(=O)N[C@@H](Cc1ccc(OS(=O)(=O)[O-])cc1)C(=O)N[C@@H](Cc1ccc(OS(=O)(=O)[O-])cc1)C(=O)N[C@@H](Cc1ccc(OS(=O)(=O)[O-])cc1)C(=O)N[C@@H](Cc1ccc(OS(=O)(=O)[O-])cc1)C(=O)N[C@@H](Cc1ccc(OS(=O)(=O)[O-])cc1)C(=O)N[C@@H](Cc1ccc(OS(=O)(=O)[O-])cc1)C(=O)O.[Na+].[Na+].[Na+].[Na+].[Na+].[Na+].[Na+].[Na+].[Na+].[Na+]` (H-[sY][sY][sY][sY][sY][sY][sY][sY][sY][sY]-OH), the APTT with Plasma [1] was 153.7 s; with Plasma [2] it was 30.6 s; in the experiment with Plasma [3], 90.5 s; in the experiment with Plasma [4] it was 41 s; with Plasma [5], 32.1 s.
